Biological target: KRas (Homo sapiens, UniProt P01116, G12C)
Test: KRas degradation in SW1573 cells by Western blot, normalized to GAPDH (data of Table 14)
Type: cell-based
Details: SW1573 cells
Outline: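 SW1573 cells, homozygous for the KRas G12C mutation and maintained in DMEM with 10% FBS and 1% penicillin-streptomycin, were seeded in 12-well plates, allowed to attach overnight at 37° C. under 5% CO2, then serum-starved for 24 hours before compound exposure. KRas levels were measured by Western blot, normalized to GAPDH, and compared with DMSO controls to give percent degradation, DC50 and Dmax.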

Structure (SMILES) | Percent Degradation at Indicated Concentration (μM) (0.1 μM) | Percent Degradation at Indicated Concentration (μM) (0.3 μM) | Percent Degradation at Indicated Concentration (μM) (1 μM) | Dmax [%] | Percent Degradation at Indicated Concentration (μM) (0.03 μM) | Percent Degradation at Indicated Concentration (μM) (3 μM)
C=CC(=O)N1CCN(c2nc(O[C@H](C)CN3CCC(OCCOCCOCCOc4cc(-c5scnc5C)ccc4CNC(=O)[C@@H]4C[C@@H](O)CN4C(=O)[C@H](c4cc(C)no4)C(C)C)CC3)nc3c2CCN(c2cc(O)cc4ccccc24)C3)CC1 [compound 441, (2S,4R)-N-(2-(2-(2-(2-((1-((R)-2-((4-(4-acryloylpiperazin-1-yl)-7-(3-hydroxynaphthalen-1-yl)-5,6,7,8-tetrahydropyrido[3,4-d]pyrimidin-2-yl)oxy)propyl)piperidin-4-yl)oxy)ethoxy)ethoxy)ethoxy)-4-(4-methylthiazol-5-yl)benzyl)-4-hydroxy-1-((S)-3-methyl-2-(3-methylisoxazol-5-yl)butanoyl)pyrrolidine-2-carboxamide] | C (Percent Degradation: C ≤ 35) | C (Percent Degradation: C ≤ 35) | C (Percent Degradation: C ≤ 35) | – | – | –
C=CC(=O)N1CCN(c2nc(O[C@H](C)CN3CCC(OCCOCCOCCOCCOc4cc(-c5scnc5C)ccc4CNC(=O)[C@@H]4C[C@@H](O)CN4C(=O)[C@@H](c4cc(C)no4)C(C)C)CC3)nc3c2CCN(c2cc(O)cc4ccccc24)C3)CC1 [compound 442] | C (Percent Degradation: C ≤ 35) | C (Percent Degradation: C ≤ 35) | C (Percent Degradation: C ≤ 35) | – | – | –
C=CC(=O)N1CCN(c2nc(O[C@H](C)CN3CCC(OCCOCCOCCOCCOc4cc(-c5scnc5C)ccc4CNC(=O)[C@@H]4C[C@@H](O)CN4C(=O)[C@H](c4cc(C)no4)C(C)C)CC3)nc3c2CCN(c2cc(O)cc4ccccc24)C3)CC1 [compound 443, (2S,4R)-N-(2-(2-(2-(2-(2-((1-((R)-2-((4-(4-acryloylpiperazin-1-yl)-7-(3-hydroxynaphthalen-1-yl)-5,6,7,8-tetrahydropyrido[3,4-d]dipyrimidin-2-yl)oxy)propyl)piperidin-4-yl)oxy)ethoxy)ethoxy)ethoxy)ethoxy)-4-(4-methylthiazol-5-yl)benzyl)-4-hydroxy-1-((S)-3-methyl-2-(3-methylisoxazol-5-yl)butanoyl)pyrrolidine-2-carboxamide] | C (Percent Degradation: C ≤ 35) | C (Percent Degradation: C ≤ 35) | C (Percent Degradation: C ≤ 35) | – | – | –
C=CC(=O)N1CCN(c2nc(O[C@H](C)CN3CCC(OCCOCCOCCOCCOCCOc4cc(-c5scnc5C)ccc4CNC(=O)[C@@H]4C[C@@H](O)CN4C(=O)[C@H](c4cc(C)no4)C(C)C)CC3)nc3c2CCN(c2cc(O)cc4ccccc24)C3)CC1 [compound 444] | C (Percent Degradation: C ≤ 35) | C (Percent Degradation: C ≤ 35) | C (Percent Degradation: C ≤ 35) | – | – | –
C=CC(=O)N1CCN(c2nc(OC3CCN(CCOCCN4CCN(CC(=O)N[C@H](C(=O)N5C[C@H](O)C[C@H]5C(=O)N[C@@H](C)c5ccc(-c6scnc6C)cc5)C(C)(C)C)CC4)CC3)nc3c(F)c(-c4cc(O)cc5ccccc45)c(Cl)cc23)CC1 [compound 475, (2S,4R)-1-((2S)-2-(2-(4-(2-(2-(4-((4-(4-acryloylpiperazin-1-yl)-6-chloro-8-fluoro-7-(3-hydroxynaphthalen-1-yl)quinazolin-2-yl)oxy)piperidin-1-yl)ethoxy)ethyl)piperazin-1-yl)acetamido)-3,3-dimethylbutanoyl)-4-hydroxy-N-((S)-1-(4-(4-methylthiazol-5-yl)phenyl)ethyl)pyrrolidine-2-carboxamide] | C (Percent Degradation: C ≤ 35) | C (Percent Degradation: C ≤ 35) | C (Percent Degradation: C ≤ 35) | – | – | –
C=CC(=O)N1CCN(c2nc(OC[C@@H]3C[C@@H](OCCOCCOCCOCCOCC(=O)N[C@H](C(=O)N4C[C@H](O)C[C@H]4C(=O)N[C@@H](C)c4ccc(-c5scnc5C)cc4)C(C)(C)C)CN3C)nc3c2CCN(c2cccc4ccccc24)C3)C[C@@H]1CC#N [compound 480] | C (Percent Degradation: C ≤ 35) | C (Percent Degradation: C ≤ 35) | C (Percent Degradation: C ≤ 35) | – | – | –
C=CC(=O)N1CCN(c2nc(OC[C@@H]3C[C@@H](OCCOCCOCCOCCOc4ccc5c(c4)C(=O)N(C4CCC(=O)NC4=O)C5=O)CN3C)nc3c2CCN(c2cccc4ccccc24)C3)C[C@@H]1CC#N (stereo partly drawn) [compound 481, 2-((2S)-1-acryloyl-4-(2-(((2S,4R)-4-(2-(2-(2-(2-((2-(2,6-dioxopiperidin-3-yl)-1,3-dioxoisoindolin-5-yl)oxy)ethoxy)ethoxy)ethoxy)ethoxy)-1-methylpyrrolidin-2-yl)methoxy)-7-(naphthalen-1-yl)-5,6,7,8-tetrahydropyrido[3,4-d]dipyrimidin-4-yl)piperazin-2-yl)acetonitrile] | C (Percent Degradation: C ≤ 35) | C (Percent Degradation: C ≤ 35) | B (35 < B < 70) | 35 to 70 | – | –
C=CC(=O)N1CCN(c2nc(OC[C@@H]3C[C@@H](OCCOCCOc4ccc5c(c4)C(=O)N(C4CCC(=O)NC4=O)C5=O)CN3C)nc3c2CCN(c2cccc4ccccc24)C3)C[C@@H]1CC#N (stereo partly drawn) [compound 503, 2-((2S)-1-acryloyl-4-(2-(((2S,4R)-4-(2-(2-((2-(2,6-dioxopiperidin-3-yl)-1,3-dioxoisoindolin-5-yl)oxy)ethoxy)ethoxy)-1-methylpyrrolidin-2-yl)methoxy)-7-(naphthalen-1-yl)-5,6,7,8-tetrahydropyrido[3,4-d]pyrimidin-4-yl)piperazin-2-yl)acetonitrile] | C (Percent Degradation: C ≤ 35) | C (Percent Degradation: C ≤ 35) | C (Percent Degradation: C ≤ 35) | – | C (Percent Degradation: C ≤ 35) | –
C=CC(=O)N1CCN(c2nc(OC[C@@H]3C[C@@H](OCCOCCOCCOc4ccc5c(c4)C(=O)N(C4CCC(=O)NC4=O)C5=O)CN3C)nc3c2CCN(c2cccc4ccccc24)C3)C[C@@H]1CC#N (stereo partly drawn) [compound 504, 2-((2S)-1-acryloyl-4-(2-(((2S,4R)-4-(2-(2-(2-((2-(2,6-dioxopiperidin-3-yl)-1,3-dioxoisoindolin-5-yl)oxy)ethoxy)ethoxy)ethoxy)-1-methylpyrrolidin-2-yl)methoxy)-7-(naphthalen-1-yl)-5,6,7,8-tetrahydropyrido[3,4-d]pyrimidin-4-yl)piperazin-2-yl)acetonitrile] | B (35 < B < 70) | A (A > 70) | C (Percent Degradation: C ≤ 35) | ≥ 70 | – | –
C=CC(=O)N1CCN(c2nc(OC[C@@H]3C[C@@H](OCCOCCOCCOCCOCCOc4ccc5c(c4)C(=O)N(C4CCC(=O)NC4=O)C5=O)CN3C)nc3c2CCN(c2cccc4ccccc24)C3)C[C@@H]1CC#N (stereo partly drawn) [compound 505, 2-((2S)-1-acryloyl-4-(2-(((2S,4R)-4-((14-((2-(2,6-dioxopiperidin-3-yl)-1,3-dioxoisoindolin-5-yl)oxy)-3,6,9,12-tetraoxatetradecyl)oxy)-1-methylpyrrolidin-2-yl)methoxy)-7-(naphthalen-1-yl)-5,6,7,8-tetrahydropyrido[3,4-d]pyrimidin-4-yl)piperazin-2-yl)acetonitrile] | C (Percent Degradation: C ≤ 35) | C (Percent Degradation: C ≤ 35) | – | – | C (Percent Degradation: C ≤ 35) | –
C[C@H](CN1CCC(OCCOCCOCCOCCOCCOc2ccc3c(c2)C(=O)N(C2CCC(=O)NC2=O)C3=O)CC1)Oc1nc(N2CCN(C(=O)C(O)O)CC2)c2cc(Cl)c(-c3cc(O)cc4ccccc34)c(F)c2n1 (stereo partly drawn) [compound 515, 5-((14-((1-((2R)-2-((6-chloro-4-(4-(2,2-dihydroxyacetyl)piperazin-1-yl)-8-fluoro-7-(3-hydroxynaphthalen-1-yl)quinazolin-2-yl)oxy)propyl)piperidin-4-yl)oxy)-3,6,9,12-tetraoxatetradecyl)oxy)-2-(2,6-dioxopiperidin-3-yl)isoindoline-1,3-dione] | – | C (Percent Degradation: C ≤ 35) | C (Percent Degradation: C ≤ 35) | – | – | C (Percent Degradation: C ≤ 35)
C=CC(=O)N1CCN(c2nc(OC[C@@H]3C[C@@H](OCCOCCNc4cccc5c4C(=O)N(C4CCC(=O)NC4=O)C5=O)CN3C)nc3c2CCN(c2cccc4ccccc24)C3)C[C@@H]1CC#N (stereo partly drawn) [compound 516, 2-((2S)-1-acryloyl-4-(2-(((2S,4R)-4-(2-(2-((2-(2,6-dioxopiperidin-3-yl)-1,3-dioxoisoindolin-4-yl)amino)ethoxy)ethoxy)-1-methylpyrrolidin-2-yl)methoxy)-7-(naphthalen-1-yl)-5,6,7,8-tetrahydropyrido[3,4-d]pyrimidin-4-yl)piperazin-2-yl)acetonitrile] | C (Percent Degradation: C ≤ 35) | B (35 < B < 70) | B (35 < B < 70) | 35 to 70 | – | –
